{
  "source": "patent US12575568B2",
  "about": "“Composition for promoting the growth of legumes” (CH BIOTECH R&D CO., LTD., priority 2022, dated 2026)",
  "type_in_all_cases": "in vivo, Alfalfa (Medicago sativa L.)",
  "key": {"alfalfa plants [1]": {"test_system": "alfalfa plants", "assay": "Example 3 efficacy test on alfalfa with or without Rhizobium inoculation: shoot weight, leaf area, root dry weight", "settings": "Day 12 after foliar spray", "description": "Five (5) seeds were sown in one pot. Alfalfa plants were randomly divided into 6 groups, in which Groups 1 to 3 were not inoculated with Rhizobium, and Groups 4 to 6 were inoculated with Rhizobium. Rhizobium inoculation was the same as described in Example 2. After inoculation, the pots were placed in a phytotron, which was operated at 25/23° C. day/night temperature and on a 16/8 h light/dark cycle. Two (2) weeks after sowing (V2 stage), alfalfa plants were applied with the reagents listed in Table 6 once at a rate of 10 mL/12 pots using a foliar spray treatment. The reagents were applied once in total during the test period. [table] Twelve (12) days after the application of reagents, 12 alfalfa plants from each group (N=12) were randomly selected for phenotype observation, and the shoot fresh weight of the collected samples was measured. Then, the collected samples were dried at 50° C. overnight, and the shoot dry weight was measured. Twelve (12) days after the application of reagents, 6 alfalfa plants from each group (N=6) were randomly selected. All the trifoliate leaves of the selected plants were collected and numbered in sequence from bottom to top. The leaf area of all the trifoliate leaves of each alfalfa plant was measured by a leaf analyzer ([…]2400, Regent Instruments Inc.). Twelve (12) days after the application of reagents, 4 alfalfa plants from each group (N=4) were randomly selected. The collected samples were dried at 50° C. overnight, and then the root dry weight was measured. Average and standard error (SE) of each group were calculated."}, "alfalfa plants [2]": {"test_system": "alfalfa plants", "assay": "Example 3 nitrogen content of alfalfa leaves", "settings": "12 days after application; Groups 4-6 Rhizobium inoculated; p<0.001", "description": "(§1) Alfalfa (Medicago sativa L.) seeds were sown in 3.5-inch pots containing culture medium (peat soil:vermiculite=1:1). Five (5) seeds were sown in one pot. Alfalfa plants were randomly divided into 6 groups, in which Groups 1 to 3 were not inoculated with Rhizobium, and Groups 4 to 6 were inoculated with Rhizobium. Rhizobium inoculation was the same as described in Example 2. After inoculation, the pots were placed in a phytotron, which was operated at 25/23° C. day/night temperature and on a 16/8 h light/dark cycle. Two (2) weeks after sowing (V2 stage), alfalfa plants were applied with the reagents listed in Table 6 once at a rate of 10 mL/12 pots using a foliar spray treatment. The reagents were applied once in total during the test period. [table] Twelve (12) days after the application of reagents, 4 alfalfa plants from each group (N=4) were randomly selected. The first to fifth trifoliate leaves of the selected plants were collected, air-dried at 50° C. overnight and then ground into powder. […] Average and standard error (SE) of each group were calculated."}, "[3]": {"test_system": "glutamate synthase (GOGAT)", "assay": "Example 3 activity of glutamate synthase (GOGAT) of alfalfa leaves", "settings": "12 days after application; Groups 2-3 without, Groups 4-6 with Rhizobium", "description": "as §1, with “third” for “first to fifth”, “collected to determine GOGAT activity by the following method. […] The GOGAT activity is determined by NADH reduction through measuring fluorescence intensity” for “collected, air-dried”, “excitation/emission wavelengths of 340/445 nm.” for “50° C. overnight and then ground into powder.”"}, "[4]": {"settings": "Groups 2-3 without, Groups 4-6 with Rhizobium"}, "[5]": {"settings": "Groups 4-6 Rhizobium inoculated"}, "[6]": {"settings": "Groups 4-6 Rhizobium inoculated, Group 1 no Rhizobium, no actives"}},
  "data": [
    {"smiles": "NCCCC(=O)O", "note": "[Group 4, γ-aminobutyric acid (GABA)]", "values": [
      {"measurement": "Leaf Area, Sum of trifoliate leaves", "setting": "alfalfa plants [1]; [4]", "value": 6.27, "unit": "cm^2/plant"},
      {"measurement": "Leaf Area, trifoliate leaf number 1", "setting": "alfalfa plants [1]; [4]", "value": 0.90, "unit": "cm^2/plant"},
      {"measurement": "Leaf Area, trifoliate leaf number 2", "setting": "alfalfa plants [1]; [4]", "value": 1.03, "unit": "cm^2/plant"},
      {"measurement": "Leaf Area, trifoliate leaf number 3", "setting": "alfalfa plants [1]; [4]", "value": 1.01, "unit": "cm^2/plant"},
      {"measurement": "Leaf Area, trifoliate leaf number 4", "setting": "alfalfa plants [1]; [4]", "value": 0.85, "unit": "cm^2/plant"},
      {"measurement": "Leaf Area, trifoliate leaf number 5", "setting": "alfalfa plants [1]; [4]", "value": 0.87, "unit": "cm^2/plant"},
      {"measurement": "Leaf Area, trifoliate leaf number 6", "setting": "alfalfa plants [1]; [4]", "value": 0.93, "unit": "cm^2/plant"},
      {"measurement": "Leaf Area, trifoliate leaf number 7", "setting": "alfalfa plants [1]; [4]", "value": 0.52, "unit": "cm^2/plant"},
      {"measurement": "Leaf Area, trifoliate leaf number 8", "setting": "alfalfa plants [1]; [4]", "value": 0.17, "unit": "cm^2/plant"},
      {"measurement": "Leaf Area, trifoliate leaf number 9", "setting": "alfalfa plants [1]; [4]", "value": 0.00, "unit": "cm^2/plant"},
      {"measurement": "increase of leaf area compared with Group 1", "setting": "alfalfa plants [1]; [4]", "value": 64, "unit": "%"},
      {"measurement": "root dry weights compared with Group 1", "setting": "alfalfa plants [1]; [4]", "value": "higher"},
      {"measurement": "increase of trifoliate leaves compared with Group 1", "setting": "alfalfa plants [1]; [5]", "value": 2, "unit": "trifoliate leaves"},
      {"measurement": "plant height compared with Group 1 (words, FIG. 12)", "setting": "alfalfa plants [1]; [5]", "value": "higher"},
      {"measurement": "increase of shoot dry weight compared with Group 1", "setting": "alfalfa plants [1]; [6]", "value": 52.9, "unit": "%"},
      {"measurement": "increase of shoot fresh weight compared with Group 1", "setting": "alfalfa plants [1]; [6]", "value": 66.5, "unit": "%"},
      {"measurement": "increase of nitrogen content in the leaves compared with Group 1", "setting": "alfalfa plants [2]", "value": 115.8, "unit": "%"},
      {"measurement": "increase of GOGAT activity in the leaves compared with Group 1", "setting": "[3]", "value": 13.5, "unit": "%"}
    ]}
  ]
}
